Measurements published in ChEMBL document CHEMBL3046154, “Synthesis and biological activity of 2-(4,5-dihydroisoxazol-5-yl)-1,3,4-oxadiazoles” (2009).

Experiments:
Format in all cases: functional
Set-up in all cases: concentration or dose not given beside the values
Spodoptera exigua = assay: Insecticidal activity against Spodoptera exigua assessed as mortality
Zymoseptoria tritici = assay: Antifungal activity against Zymoseptoria tritici assessed as disease control
Pyricularia oryzae = assay: Antifungal activity against Magnaporthe oryzae assessed as disease control

Structure (SMILES)	Activity (Spodoptera exigua) [%]	Activity (Zymoseptoria tritici) [%]	Activity (Pyricularia oryzae) [%]
CC1(c2nnc(Cc3ccccc3)o2)CC(c2c(Cl)cccc2Cl)=NO1 (stereo not drawn)	0	0	0
Clc1ccc(C2=NOC(c3nnc(-c4ccccc4)o3)C2)cc1 (stereo not drawn)	17	0	0
Clc1cccc(Cl)c1C1=NOC(c2nnc(-c3ccccc3)o2)C1 (stereo not drawn)	17	30	40
CC1(c2nnc(Cc3ccccc3)o2)CC(c2ccc([N+](=O)[O-])cc2)=NO1 (stereo not drawn)	17	30	30
Fc1ccc(C2=NOC(c3nnc(-c4ccccc4)o3)C2)cc1 (stereo not drawn)	17	0	30
CC1(c2nnc(-c3ccc(Cl)cc3)o2)CC(c2cccc(Cl)c2)=NO1 (stereo not drawn)	50	10	50
CC1(c2nnc(-c3ccc(Cl)cc3)o2)CC(c2ccc([N+](=O)[O-])cc2)=NO1 (stereo not drawn)	0	40	30
CC1(c2nnc(-c3cccc(Cl)c3)o2)CC(c2ccccc2)=NO1 (stereo not drawn)	17	10	40
CC1(c2nnc(-c3cccc(Cl)c3)o2)CC(c2ccc(F)cc2)=NO1 (stereo not drawn)	0	10	50
CC1(c2nnc(-c3ccc(Cl)cc3)o2)CC(c2ccncc2)=NO1 (stereo not drawn)	0	70	30
CC1(c2nnc(-c3ccc(Cl)cc3)o2)CC(c2ccc(Cl)cc2)=NO1 (stereo not drawn)	17	0	50
CC1(c2nnc(-c3cccc(Cl)c3)o2)CC(c2cccc(Cl)c2)=NO1 (stereo not drawn)	33	0	30
CC1(c2nnc(-c3cccc(Cl)c3)o2)CC(c2ccc(Cl)cc2)=NO1 (stereo not drawn)	50	0	40
CC1(c2nnc(-c3cccc(Cl)c3)o2)CC(c2c(Cl)cccc2Cl)=NO1 (stereo not drawn)	50	0	50
Clc1cccc(C2=NOC(c3nnc(-c4ccccc4)o3)C2)c1 (stereo not drawn)	0	0	30
c1ccc(-c2nnc(C3CC(c4ccncc4)=NO3)o2)cc1 (stereo not drawn)	0	0	0
